Measured values from ChEMBL document CHEMBL4017441, “Mitigating the inhibition of human bile salt export pump by drugs: opportunities provided by physicochemical property modulation, in silico modeling, and structural modification” (Drug Metab Dispos, 2012).
pIC50: −log10 of the molar value. Counter-ions that a name gives are not always drawn.

Biological target: Bile salt export pump (Homo sapiens, UniProt O95342)
Format: ADME

In the case of `CCCc1c2c(c(O)c3c(=O)cc(C(=O)O)oc13)CCCC2` [PROXICROMIL], the pIC50 was 4.52.

Compound `CN(C)C(=O)Oc1ccc[n+](C)c1` [PYRIDOSTIGMINE BROMIDE] has a pIC50 of under 3.00.

Work on `COc1ccc(CN(CCN(C)C)c2ccccn2)cc1` [PYRILAMINE] yielded a pIC50 of under 3.00.

With `CCc1nc(N)nc(N)c1-c1ccc(Cl)cc1` [PYRIMETHAMINE] the pIC50 was 3.70.

`CN1CC[C@@]2(C)c3cc(OC(=O)N4CCc5ccccc5C4)ccc3N(C)[C@@H]12` [QUILOSTIGMINE] showed a pIC50 of over 5.00.

Work on `CCN(CC)CCCC(C)Nc1c2ccc(Cl)cc2nc2ccc(OC)cc12` (centres undefined) [QUINACRINE] yielded a pIC50 of 4.00.

In the case of `C=C[C@H]1C[N@@]2CC[C@H]1C[C@H]2[C@H](O)c1ccnc2ccc(OC)cc12` [QUININE], the pIC50 was 4.01.

Compound `COc1cc(Nc2ncc(F)c(Nc3ccc4c(n3)NC(=O)C(C)(C)O4)n2)cc(OC)c1OC` [R-406] has a pIC50 of 3.71.

For `C[C@H](NCc1ccc(OCc2ccccc2F)cc1)C(N)=O` [RALFINAMIDE], the pIC50 was 3.76.

Work on `O=C(O)CCn1c2c(c3ccccc31)C[C@H](NS(=O)(=O)c1ccc(F)cc1)CC2` [RAMATROBAN] yielded a pIC50 of 4.20.

In the case of `CCC(=O)NCC[C@@H]1CCc2ccc3c(c21)CCO3` [RAMELTEON], the pIC50 was 4.07.

`CC(Cc1ccccc1)(NC(=O)CN)c1ccccc1` (centres undefined) [REMACEMIDE] was tested, and the pIC50 was 3.54.

With `CCN1CCC[C@H]1CNC(=O)c1c(OC)ccc(Br)c1OC` [REMOXIPRIDE] the pIC50 was over 5.00.

For `COC(=O)[C@H]1[C@H]2C[C@@H]3c4[nH]c5cc(OC)ccc5c4CCN3C[C@H]2C[C@@H](OC(=O)c2cc(OC)c(OC)c(OC)c2)[C@@H]1OC` [RESERPINE], the pIC50 was over 5.00.

For `Nc1nc2ccc(OC(F)(F)F)cc2s1` [RILUZOLE], the pIC50 was 3.86.

With `Cc1c(C(=O)NN2CCCCC2)nn(-c2ccc(Cl)cc2Cl)c1-c1ccc(Cl)cc1` [RIMONABANT] the pIC50 was over 5.00.

With `CS(=O)(=O)c1ccc(C2=C(c3ccccc3)C(=O)OC2)cc1` [ROFECOXIB] the pIC50 was 4.02.

In the case of `CCCN1CCCC[C@H]1C(=O)Nc1c(C)cccc1C` [ROPIVACAINE], the pIC50 was 3.19.

`O=C(O)c1c(Cl)c(Cl)c(Cl)c(Cl)c1-c1c2cc(I)c(=O)c(I)c-2oc2c(I)c(O)c(I)cc12` [ROSE BENGAL SODIUM] showed a pIC50 of over 5.00.

`O=[N+]([O-])c1cc([As](=O)(O)O)ccc1O` [ROXARSONE] gave a pIC50 of under 3.00.

`O=C(O)CCCCCCCNC(=O)c1ccccc1O` [SALCAPROZIC ACID] gave a pIC50 of under 3.12.

In the case of `OCc1ccccc1O[C@@H]1O[C@H](CO)[C@@H](O)[C@H](O)[C@H]1O` [SALICIN], the pIC50 was under 3.00.

`NC(=O)c1ccccc1O` [SALICYLAMIDE] showed a pIC50 of under 3.00.

Compound `O=C(Oc1ccccc1C(=O)O)c1ccccc1O` [SALSALATE] has a pIC50 of under 3.00.

`CN1[C@@H]2C[C@@H](OC(=O)[C@H](CO)c3ccccc3)C[C@H]1[C@@H]1O[C@@H]12` [SCOPOLAMINE] gave a pIC50 of under 3.00.

`CCN(CC)CCNC(=O)c1ccc(NS(C)(=O)=O)cc1` [SEMATILIDE] was tested, and the pIC50 was under 3.00.

With `CC1=C(C)C(=O)C(C(CCCCCC(=O)O)c2ccccc2)=C(C)C1=O` (centres undefined) [SERATRODAST] the pIC50 was over 4.84.

`CN[C@H]1CC[C@@H](c2ccc(Cl)c(Cl)c2)c2ccccc21` [SERTRALINE] showed a pIC50 of 4.53.

For `O=c1[nH]c2c(O)ccc(CCNCCS(=O)(=O)CCCOCCc3ccccc3)c2s1` [SIBENADET], the pIC50 was over 5.00.

`CO[C@H]1C[C@@H]2CC[C@@H](C)[C@@](O)(O2)C(=O)C(=O)N2CCCC[C@H]2C(=O)O[C@H]([C@H](C)C[C@@H]2CC[C@@H](O)[C@H](OC)C2)CC(=O)[C@H](C)/C=C(\C)[C@@H](O)[C@@H](OC)C(=O)[C@H](C)C[C@H](C)/C=C/C=C/C=C/1C` [SIROLIMUS] showed a pIC50 of over 5.00.

Work on `N[C@@H](CC(=O)N1CCn2c(nnc2C(F)(F)F)C1)Cc1cc(F)c(F)cc1F` [SITAGLIPTIN] yielded a pIC50 of 3.83.

Work on `CNC(=O)c1cc(Oc2ccc(NC(=O)Nc3ccc(Cl)c(C(F)(F)F)c3)cc2)ccn1` [SORAFENIB] yielded a pIC50 of over 5.00.

With `O=C(CCCN1CCC2(CC1)C(=O)NCN2c1ccccc1)c1ccc(F)cc1` [SPIPERONE] the pIC50 was over 5.00.

Compound `CCOC(=O)[C@H](CCc1ccccc1)N[C@@H](C)C(=O)N1CC2(C[C@H]1C(=O)O)SCCS2` [SPIRAPRIL HYDROCHLORIDE] has a pIC50 of 4.33.

`O=C(O)CCC(=O)Nc1ccc(S(=O)(=O)Nc2nccs2)cc1` [SUCCINYLSULFATHIAZOLE] showed a pIC50 of under 3.00.

`CC(=O)NS(=O)(=O)c1ccc(N)cc1` [SULFACETAMIDE] showed a pIC50 of under 3.00.

`Nc1ccc(S(=O)(=O)Nc2ccc(Cl)nn2)cc1` [SULFACHLORPYRIDAZINE] gave a pIC50 of under 3.00.

For `Nc1ccc(S(=O)(=O)Nc2ncccn2)cc1` [SULFADIAZINE], the pIC50 was under 3.00.

Compound `COc1cc(NS(=O)(=O)c2ccc(N)cc2)nc(OC)n1` [SULFADIMETHOXINE] has a pIC50 of under 3.00.

For `COc1ncnc(NS(=O)(=O)c2ccc(N)cc2)c1OC` [SULFADOXINE], the pIC50 was under 3.00.

Work on `Cc1ccnc(NS(=O)(=O)c2ccc(N)cc2)n1` [SULFAMERAZINE] yielded a pIC50 of under 3.00.

In the case of `Cc1cc(C)nc(NS(=O)(=O)c2ccc(N)cc2)n1` [SULFAMETHAZINE], the pIC50 was under 3.00.

With `Cc1nnc(NS(=O)(=O)c2ccc(N)cc2)s1` [SULFAMETHIZOLE] the pIC50 was under 3.00.

With `Cc1cc(NS(=O)(=O)c2ccc(N)cc2)no1` [SULFAMETHOXAZOLE] the pIC50 was under 3.00.

For `Cc1noc(NS(=O)(=O)c2ccc(N)cc2)c1C` [SULFISOXAZOLE], the pIC50 was under 3.00.

For `CCN1CCCC1CNC(=O)c1cc(S(N)(=O)=O)ccc1OC` (centres undefined) [SULPIRIDE], the pIC50 was 3.56.

With `CCN(CC)CCNC(=O)c1c(C)[nH]c(/C=C2\C(=O)Nc3ccc(F)cc32)c1C` [SUNITINIB] the pIC50 was 4.34.

With `Cc1ccc(C(=O)Nc2ccc(S(=O)(=O)O)c3cc(S(=O)(=O)O)cc(S(=O)(=O)O)c23)cc1NC(=O)c1cccc(NC(=O)Nc2cccc(C(=O)Nc3cc(C(=O)Nc4ccc(S(=O)(=O)O)c5cc(S(=O)(=O)O)cc(S(=O)(=O)O)c45)ccc3C)c2)c1` [SURAMIN] the pIC50 was 3.97.

`CC[C@H](NC(=O)c1c(O)c(-c2ccccc2)nc2ccccc12)c1ccccc1` [TALNETANT] gave a pIC50 of over 5.00.

Compound `O=C1OC(OC(=O)c2cccnc2Nc2cccc(C(F)(F)F)c2)c2ccccc21` (centres undefined) [TALNIFLUMATE] has a pIC50 of under 3.00.

`Cc1scc2c1N(C(=O)CN1CCN(C)CC1)c1ccccc1NC2=O` [TELENZEPINE] showed a pIC50 of 3.50.

For `CC1(C)CC(O)CC(C)(C)N1[O]` [TEMPOL], the pIC50 was under 3.00.

For `CC(C)(C)c1cc(C(C)(C)C)c2oc(C(=O)O)cc(=O)c2c1` [TERBUCROMIL], the pIC50 was over 5.00.

Compound `CC(C)(C)c1ccc(C(O)CCCN2CCC(C(O)(c3ccccc3)c3ccccc3)CC2)cc1` (centres undefined) [TERFENADINE] has a pIC50 of over 4.76.

In the case of `CCCCNc1ccc(C(=O)OCCN(C)C)cc1` [TETRACAINE], the pIC50 was 3.29.

In the case of `O=C1C(O)=C(O)C(=O)C(O)=C1O` [TETROQUINONE], the pIC50 was under 3.00.

In the case of `O=C1CCC(N2C(=O)c3ccccc3C2=O)C(=O)N1` (centres undefined) [THALIDOMIDE], the pIC50 was under 3.00.

Compound `c1ccc2[nH]c(-c3cscn3)nc2c1` [THIABENDAZOLE] has a pIC50 of 3.25.

`CSc1ccc2c(c1)N(CCC1CCCCN1C)c1ccccc1S2` (centres undefined) [THIORIDAZINE] gave a pIC50 of 4.61.

With `O=C(O)c1ccccc1S` [THIOSALICYLIC ACID] the pIC50 was under 3.00.

`S=P(N1CC1)(N1CC1)N1CC1` [THIOTEPA] gave a pIC50 of under 3.00.

`CN1CCN(CC/C=C2/c3ccccc3Sc3ccc(S(=O)(=O)N(C)C)cc32)CC1` [THIOTHIXENE] was tested, and the pIC50 was 4.52.

For `CC(C)(C)NC[C@H](O)COc1nsnc1N1CCOCC1` [TIMOLOL], the pIC50 was under 3.00.

`C[N+]1(C)[C@@H]2C[C@@H](OC(=O)C(O)(c3cccs3)c3cccs3)C[C@H]1[C@@H]1O[C@@H]12` [TIOTROPIUM] was tested, and the pIC50 was under 3.00.
